Calls of active or inactive are those of the source.
Experiments:
Vero = Vero cell cytotoxicity, cytotoxicity control for flavivirus capping enzyme inhibitors (AID 588742); type: functional; settings: Chlorocebus sabaeus
[1] = growth suppression of PTEN-null colon cells, dose response, cell-based, HCT116 PTEN knockout (AID 1047); type: functional;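 note: HCT116 colon tumor cells with PTEN knocked out; cells exposed to compound for 60 hours before readout; potency for loss of cell viability measured by luminescence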
[2] = growth suppression of beta-catenin-knockout colon cells, dose response, cell-based, HCT116, human colon tumor (AID 1045); type: functional;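 note: HCT116 colon tumor cells with beta catenin knocked out; cells exposed to compound for 60 hours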
Fatty acid synthase [3] = target: T1, Fatty acid synthase (Homo sapiens, UniProt P49327); test: FAS thioesterase domain inhibitors, dose response, biochemical, kinetic fluorescence intensity (AID 624326); type: functional;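 note: rate of fluorescence rise from hydrolysis of a fluorogenic O-methyl fluorescein ester substrate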
Fatty acid synthase [4] = target: T1, Fatty acid synthase; test: FAS thioesterase domain inhibitors, dose response, biochemical, endpoint fluorescence intensity, uHTS hits (AID 624327); type: functional;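 note: fluorescence from hydrolysis of an O-methyl fluorescein acyl ester substrate by the enzyme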
[5] = target: T2, Short transient receptor potential channel 4 (Mus musculus, UniProt Q9QUQ5); test: mouse TRPC4 channel activators, dose response, cell-based, HEK293 TRPC4/mu-opioid, Fluo-4 calcium (AID 434937); type: functional
T2 sequence (Q9QUQ5 whole entry): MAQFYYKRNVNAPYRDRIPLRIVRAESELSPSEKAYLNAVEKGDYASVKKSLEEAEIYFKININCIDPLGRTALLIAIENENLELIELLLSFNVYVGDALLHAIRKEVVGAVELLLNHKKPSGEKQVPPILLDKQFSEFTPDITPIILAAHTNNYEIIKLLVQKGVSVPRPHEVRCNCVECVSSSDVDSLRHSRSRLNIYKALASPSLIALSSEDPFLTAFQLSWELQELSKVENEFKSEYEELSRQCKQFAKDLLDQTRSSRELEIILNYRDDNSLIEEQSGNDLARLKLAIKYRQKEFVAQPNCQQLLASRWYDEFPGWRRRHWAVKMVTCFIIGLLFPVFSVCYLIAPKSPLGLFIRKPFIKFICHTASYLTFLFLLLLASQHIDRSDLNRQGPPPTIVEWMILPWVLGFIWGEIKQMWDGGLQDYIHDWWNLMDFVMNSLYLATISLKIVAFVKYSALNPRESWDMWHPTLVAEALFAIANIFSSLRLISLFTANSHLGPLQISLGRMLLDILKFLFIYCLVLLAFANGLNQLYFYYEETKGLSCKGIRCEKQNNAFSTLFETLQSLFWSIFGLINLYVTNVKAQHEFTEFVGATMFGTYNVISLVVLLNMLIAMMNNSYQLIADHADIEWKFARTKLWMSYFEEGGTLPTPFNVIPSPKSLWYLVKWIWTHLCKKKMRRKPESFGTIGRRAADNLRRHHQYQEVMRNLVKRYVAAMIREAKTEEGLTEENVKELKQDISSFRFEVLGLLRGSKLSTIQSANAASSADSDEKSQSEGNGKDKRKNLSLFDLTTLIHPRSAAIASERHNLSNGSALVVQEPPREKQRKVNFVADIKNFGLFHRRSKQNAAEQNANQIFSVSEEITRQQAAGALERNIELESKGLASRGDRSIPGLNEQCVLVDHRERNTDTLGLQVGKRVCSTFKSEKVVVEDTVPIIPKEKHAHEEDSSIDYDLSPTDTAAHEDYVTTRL

Leucine aminopeptidase = target: T3, Leucine aminopeptidase (Plasmodium falciparum 3D7, UniProt Q8IL11); test: P. falciparum M17LAP inhibitors, primary screen, biochemical, fluorogenic H-Leu-NHMec substrate, 1536-well (AID 1619); type: functional
T3 sequence (Q8IL11 whole entry): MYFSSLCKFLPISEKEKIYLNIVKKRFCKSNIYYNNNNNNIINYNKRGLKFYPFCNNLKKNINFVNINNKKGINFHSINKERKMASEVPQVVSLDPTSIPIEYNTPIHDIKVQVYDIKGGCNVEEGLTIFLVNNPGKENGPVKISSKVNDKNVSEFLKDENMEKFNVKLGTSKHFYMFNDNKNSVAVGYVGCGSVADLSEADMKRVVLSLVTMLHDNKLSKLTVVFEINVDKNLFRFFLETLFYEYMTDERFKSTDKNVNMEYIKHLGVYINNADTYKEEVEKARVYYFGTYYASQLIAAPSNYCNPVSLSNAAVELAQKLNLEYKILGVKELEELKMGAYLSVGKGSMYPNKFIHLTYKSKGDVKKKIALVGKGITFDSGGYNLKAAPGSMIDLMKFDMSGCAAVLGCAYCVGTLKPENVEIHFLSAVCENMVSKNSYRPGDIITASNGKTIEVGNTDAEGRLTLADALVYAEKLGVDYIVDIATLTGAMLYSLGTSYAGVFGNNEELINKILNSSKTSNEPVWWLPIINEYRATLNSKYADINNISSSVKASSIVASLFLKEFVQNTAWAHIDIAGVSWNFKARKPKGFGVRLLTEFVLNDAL

[6] = target: T4, Small ubiquitin-related modifier 1 (Homo sapiens, UniProt P63165); test: inhibitors of SUMO1 peptide binding, dose response, biochemical, fluorescence polarization, uHTS hits (AID 624382); type: functional; settings: read-out: IC50_Mean
[7] = target: T4, Small ubiquitin-related modifier 1; test: inhibitors of SUMO1 partner interactions, dose response, biochemical, FRET (AID 624383); type: functional; settings: read-out: IC50_Mean
[8] = target: T5, Long-chain-fatty-acid--AMP ligase FadD28 (Mycobacterium tuberculosis, UniProt P9WQ59); test: Fluorescence polarization aasay to screen for inhibitors that compete for the binding of FadD28 to a bisubstrate Measured in Biochemical System Using Plate Reader - 2147-01_Inhibitor_Dose_CherryPick_Activity.; type: functional, Mycobacterium tuberculosis H37Rv
T5 sequence (P9WQ59 whole entry): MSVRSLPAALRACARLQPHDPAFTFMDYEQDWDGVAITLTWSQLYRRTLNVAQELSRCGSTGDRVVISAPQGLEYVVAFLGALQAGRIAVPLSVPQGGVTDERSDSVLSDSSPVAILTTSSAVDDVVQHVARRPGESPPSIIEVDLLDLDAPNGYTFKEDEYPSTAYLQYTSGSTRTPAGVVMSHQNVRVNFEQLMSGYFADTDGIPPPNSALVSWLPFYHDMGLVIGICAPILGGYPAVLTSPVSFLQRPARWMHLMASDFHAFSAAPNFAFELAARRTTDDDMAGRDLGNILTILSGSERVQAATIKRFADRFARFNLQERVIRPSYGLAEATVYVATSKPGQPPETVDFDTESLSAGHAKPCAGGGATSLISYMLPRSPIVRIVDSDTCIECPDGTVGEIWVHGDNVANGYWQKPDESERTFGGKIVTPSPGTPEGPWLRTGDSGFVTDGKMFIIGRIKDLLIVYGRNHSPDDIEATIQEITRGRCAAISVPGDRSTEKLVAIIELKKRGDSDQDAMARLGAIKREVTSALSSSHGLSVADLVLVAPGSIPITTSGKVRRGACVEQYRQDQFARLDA

[9] = target: T6, Adenosylmethionine-8-amino-7-oxononanoate aminotransferase (Mycobacterium tuberculosis, UniProt P9WQ81); test: Mycobacterium tuberculosis BioA enzyme inhibitor Measured in Biochemical System Using Plate Reader - 2163-02_Inhibitor_Dose_CherryPick_Activity.; type: functional, Mycobacterium tuberculosis UT205
T6 sequence (P9WQ81 whole entry): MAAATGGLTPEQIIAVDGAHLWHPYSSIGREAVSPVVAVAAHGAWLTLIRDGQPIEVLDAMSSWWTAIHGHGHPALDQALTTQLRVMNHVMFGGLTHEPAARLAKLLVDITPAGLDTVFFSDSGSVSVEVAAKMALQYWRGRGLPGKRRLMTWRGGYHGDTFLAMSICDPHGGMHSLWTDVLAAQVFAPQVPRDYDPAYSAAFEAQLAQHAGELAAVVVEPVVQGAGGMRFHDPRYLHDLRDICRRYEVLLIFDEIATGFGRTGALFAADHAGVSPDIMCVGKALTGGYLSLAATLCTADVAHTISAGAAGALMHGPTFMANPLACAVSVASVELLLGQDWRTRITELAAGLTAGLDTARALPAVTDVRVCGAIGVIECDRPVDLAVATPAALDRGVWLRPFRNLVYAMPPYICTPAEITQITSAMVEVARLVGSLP

T1 sequence (P49327 whole entry, the tested form may be a part): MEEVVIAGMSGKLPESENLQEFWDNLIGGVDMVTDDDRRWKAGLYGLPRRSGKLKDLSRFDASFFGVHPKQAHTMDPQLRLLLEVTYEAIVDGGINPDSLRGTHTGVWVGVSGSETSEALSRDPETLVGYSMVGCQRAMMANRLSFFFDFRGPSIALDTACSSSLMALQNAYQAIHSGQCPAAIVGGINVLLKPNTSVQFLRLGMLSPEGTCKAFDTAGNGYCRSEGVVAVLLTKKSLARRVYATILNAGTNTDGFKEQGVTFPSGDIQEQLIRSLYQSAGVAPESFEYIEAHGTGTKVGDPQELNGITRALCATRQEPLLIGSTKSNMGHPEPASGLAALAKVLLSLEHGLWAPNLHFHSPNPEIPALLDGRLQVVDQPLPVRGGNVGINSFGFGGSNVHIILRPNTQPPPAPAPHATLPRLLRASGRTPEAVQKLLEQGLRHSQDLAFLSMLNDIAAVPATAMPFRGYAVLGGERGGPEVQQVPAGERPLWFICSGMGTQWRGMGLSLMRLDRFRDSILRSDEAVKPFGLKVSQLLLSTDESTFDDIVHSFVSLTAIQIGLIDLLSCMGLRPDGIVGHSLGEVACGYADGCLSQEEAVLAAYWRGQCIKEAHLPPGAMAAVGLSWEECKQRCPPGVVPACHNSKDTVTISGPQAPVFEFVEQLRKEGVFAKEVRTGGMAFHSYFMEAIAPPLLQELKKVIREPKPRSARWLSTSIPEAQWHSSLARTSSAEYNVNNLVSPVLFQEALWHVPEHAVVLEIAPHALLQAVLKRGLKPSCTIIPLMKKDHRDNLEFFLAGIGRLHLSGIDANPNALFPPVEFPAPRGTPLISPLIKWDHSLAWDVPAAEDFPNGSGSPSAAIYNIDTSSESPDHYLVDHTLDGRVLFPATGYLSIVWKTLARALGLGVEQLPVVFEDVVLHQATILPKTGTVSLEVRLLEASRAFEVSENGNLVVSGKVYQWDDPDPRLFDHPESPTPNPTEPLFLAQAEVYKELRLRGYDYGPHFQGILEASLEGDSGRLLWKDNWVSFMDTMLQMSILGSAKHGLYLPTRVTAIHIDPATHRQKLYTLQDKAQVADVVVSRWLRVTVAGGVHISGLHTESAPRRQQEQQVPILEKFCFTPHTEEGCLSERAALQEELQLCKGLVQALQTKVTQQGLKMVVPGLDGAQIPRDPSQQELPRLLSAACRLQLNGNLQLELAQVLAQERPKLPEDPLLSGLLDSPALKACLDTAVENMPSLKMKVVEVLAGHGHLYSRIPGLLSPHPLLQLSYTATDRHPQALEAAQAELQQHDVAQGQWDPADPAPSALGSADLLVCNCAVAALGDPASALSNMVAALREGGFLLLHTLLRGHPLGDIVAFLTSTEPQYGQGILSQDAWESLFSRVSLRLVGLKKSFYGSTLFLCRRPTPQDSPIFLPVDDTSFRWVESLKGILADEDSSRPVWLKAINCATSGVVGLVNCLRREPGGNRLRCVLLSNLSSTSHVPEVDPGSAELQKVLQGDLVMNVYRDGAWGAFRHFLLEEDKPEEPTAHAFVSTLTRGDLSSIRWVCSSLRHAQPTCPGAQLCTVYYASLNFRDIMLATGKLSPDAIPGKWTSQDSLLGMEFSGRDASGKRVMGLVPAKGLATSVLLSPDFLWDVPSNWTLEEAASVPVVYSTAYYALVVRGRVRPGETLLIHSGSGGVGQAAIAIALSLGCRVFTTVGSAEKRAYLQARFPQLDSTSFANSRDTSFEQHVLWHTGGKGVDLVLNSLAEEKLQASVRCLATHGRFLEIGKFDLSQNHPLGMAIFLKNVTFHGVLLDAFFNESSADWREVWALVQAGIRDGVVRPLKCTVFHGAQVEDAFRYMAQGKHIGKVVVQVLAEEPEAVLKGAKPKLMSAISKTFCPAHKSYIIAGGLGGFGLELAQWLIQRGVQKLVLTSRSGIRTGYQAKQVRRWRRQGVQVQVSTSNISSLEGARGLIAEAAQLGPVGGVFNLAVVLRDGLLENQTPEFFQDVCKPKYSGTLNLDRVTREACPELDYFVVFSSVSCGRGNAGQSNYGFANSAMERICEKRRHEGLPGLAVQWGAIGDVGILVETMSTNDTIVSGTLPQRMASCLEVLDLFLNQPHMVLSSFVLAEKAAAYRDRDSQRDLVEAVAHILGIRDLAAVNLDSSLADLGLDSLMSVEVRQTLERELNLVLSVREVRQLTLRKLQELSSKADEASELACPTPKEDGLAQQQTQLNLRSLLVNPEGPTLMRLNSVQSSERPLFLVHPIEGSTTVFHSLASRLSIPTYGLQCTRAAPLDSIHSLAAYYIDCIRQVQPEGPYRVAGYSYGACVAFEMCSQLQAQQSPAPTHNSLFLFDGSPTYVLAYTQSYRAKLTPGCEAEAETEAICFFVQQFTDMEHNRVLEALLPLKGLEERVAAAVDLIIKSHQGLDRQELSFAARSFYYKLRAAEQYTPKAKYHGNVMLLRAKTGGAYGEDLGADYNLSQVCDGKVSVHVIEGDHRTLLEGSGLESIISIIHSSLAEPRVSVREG
T4 sequence (P63165 whole entry): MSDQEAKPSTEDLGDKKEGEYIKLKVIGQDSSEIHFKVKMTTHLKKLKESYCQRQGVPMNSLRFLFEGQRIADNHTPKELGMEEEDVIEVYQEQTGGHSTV

Compound: CC(=O)Nc1ccc(S(=O)(=O)NCCSCc2c(Cl)cccc2Cl)cc1
- CC50 (Vero): > 40 µM (active)
- EC50 [1]: 61.4 µM (active)
- EC50 [2]: 149 µM (active)

Compound: C=CCn1c(SCc2cc([N+](=O)[O-])cc3c2OCOC3)nc2cc(C(=O)O)ccc2c1=O
- IC50 (Fatty acid synthase [3]): 1.6 µM (active)
- IC50 (Fatty acid synthase [4]): 2.57 µM (active)

Compound: Cc1onc(-c2ccccc2)c1C(=O)NNC(=S)NC(=O)c1ccc(F)cc1
- EC50 [5]: 5.96 µM (active)
- IC50 (Leucine aminopeptidase): 79.4 µM (active)
- IC50 [6]: > 66.6 µM (inactive)
- IC50 [7]: 100 µM (inactive)

Compound: Cc1cccc(C(=O)NNC(=O)c2ccc(NS(=O)(=O)c3cccs3)cc2)c1C
- AC50 [8]: 43.8 µM (active)

Compound: CCOCCCNC(=O)CSc1nc2nc(C)c(Cc3ccccc3)c(C)n2n1
- AC50 [9]: 2.18 µM (active)

Compound: CCC(=O)N1CC[C@@H]2[C@@H](CO)N(C)c3ccc(-c4cccc(F)c4)cc3[C@@H]21
- AC50 [9]: 0.184 µM (active)

Compound: COc1ccc(C(=O)NC(CC(=O)O)c2cc([N+](=O)[O-])ccc2Cl)c(SC)c1 (centres undefined)
- IC50 (Fatty acid synthase [3]): 8.79 µM (active)
- IC50 (Fatty acid synthase [4]): 7.33 µM (active)
